Source: the CombiSolv-Exp solvation set (Vermeire and Green 2021)

Assay: solvent given as SMILES

FC(F)(F)C(F)(F)Cl
Details	solvation free energy, 298 K [kcal/mol]
in CCCCCCCCC	-0.87
in CCCCCCCCO	-0.39
in CN1CCCC1=O	0.07
in CN(C)C=O	-1.54
in O	2.89

CC(=O)CCC(C)C
Details	solvation free energy, 298 K [kcal/mol]
in NC=O	-4.52

CC1(C)C2=CCCC(C)(C)C23CCC1C3 (stereo not given)
Details	solvation free energy, 298 K [kcal/mol]
in O	0.71

CC(C)O
Details	solvation free energy, 298 K [kcal/mol]
in C1CCOC1	-4.75
in C1COCCO1	-4.37
in CC#N	-4.42
in CC(=O)CC(C)=O	-4.41
in CC(=O)N(C)C	-5.29
in CC(C)(C)O	-5.02
in CC(C)CC(C)(C)C	-2.9
in CC(C)CCCC(C)CCCC(C)CCCCC(C)CCCC(C)CCCC(C)C	-2.29
in CC(Cl)(Cl)Cl	-4.07
in CCC(C)=O	-4.54
in CCCC(C)O	-4.85
in CCCCCC	-2.76
in CCCCCCC	-2.71
in CCCCCCCCCCCCCCCC	-2.37
in CCCCCCCCCCO	-4.49
in CCCCCCCCO	-4.61
in CCCCCO	-4.99
in CCCCN(C=O)CCCC	-4.71
in CCCCO	-5.02
in CCCO	-5.07
in CCCOCCC	-3.74
in CCN(CC)C(C)=O	-5.2
in CCNC(C)=O	-5.09
in CCNC=O	-5.03
in CCO	-5.27
in CCOC(=O)c1ccccc1C(=O)OCC	-3.75
in CCOC(C)=O	-4.13
in CCOCCO	-4.87
in CCOP(=O)(OCC)OCC	-4.97
in CN1CCCC1=O	-5.12
in CN1CCN(C)C1=O	-5.1
in CNC(C)=O	-5.12
in CO	-5.53
in COC(C)(C)C	-4.22
in COC(C)=O	-4.46
in Cc1ccc(C)cc1	-3.39
in Cc1cccc(C)c1	-3.33
in O	-4.76
in O=CN1CCOCC1	-4.53
in OCCOCCO	-4.77
in [2H]O[2H]	-4.86

CCC
Details	solvation free energy, 298 K [kcal/mol]
in Brc1ccccc1	-1.43
in C1CCC2CCCCC2C1	-1.52
in C1COCCO1	-1.24
in CC1COC(=O)O1	-0.58
in CC(=O)N(C)C	-1.09
in CC(C)(C)O	-1.39
in CC(C)=O	-1.36
in CC(C)CCO	-1.33
in CC(C)CO	-1.32
in CC(C)O	-1.21
in CC(CC(C)(C)C)CC(C)(C)CC(C)(C)C	-2.21
in CCC(C)(C)O	-1.42
in CCC(C)CO	-1.32
in CCC(O)CC	-1.34
in CCCC(C)O	-1.34
in CCCCC	-1.81
in CCCCCC	-1.8
in CCCCCCC	-1.77
in CCCCCCCC	-1.74
in CCCCCCCCC	-1.71
in CCCCCCCCCC	-1.67
in CCCCCCCCCCCC	-1.54
in CCCCCCCCCCCCC	-1.54
in CCCCCCCCCCCCCC	-1.49
in CCCCCCCCCCCCCCC	-1.48
in CCCCCCCCCCCCCCCC	-1.42
in CCCCCCCCO	-1.28
in CCCCCCCO	-1.22
in CCCCCO	-1.32
in CCCCO	-1.35
in CCCO	-1.32
in CCO	-1.24
in CN1CCCC1=O	-0.89
in CN(C)C=O	-0.88
in CN(C)P(=O)(N(C)C)N(C)C	-1.15
in CO	-1.15
in COCCOCCO	-0.77
in COCCOCCOC	-1.24
in COCCOCCOCCOC	-0.95
in COCCOCCOCCOCCOC	-0.98
in CS(C)=O	-0.36
in Cc1ccc(C)cc1	-1.56
in Cc1cccc(C)c1	-1.62
in Cc1ccccc1C	-1.52
in ClC(Cl)(Cl)Cl	-1.83
in Clc1ccccc1	-1.61
in Ic1ccccc1	-1.51
in N#Cc1ccccc1	-1.11
in NC=O	0.19
in Nc1ccccc1	-0.79
in O	1.96
in OC1CCCCC1	-1.1
in OCCCOCCCO	-0.57
in OCc1ccccc1	-0.84
in c1ccccc1	-1.61

CCCCCC=CC=O
Details	solvation free energy, 298 K [kcal/mol]
in O	-3.43

O=CN1CCOCC1
Details	solvation free energy, 298 K [kcal/mol]
in O	-9.41
